Experimental data as given in patent US11445724B2, “Insecticidal compounds” (SYNGENTA PARTICIPATIONS AG, priority 2013, dated 2022).

Columns and labels:
Format in all cases: in vivo
[1] = system: Myzus persicae (Green peach aphid); test: Myzus persicae (Green peach aphid) mortality, test compounds mixed with Sucrose solution under Parafilm; settings: 120 h, 12.5 ppm in Sucrose solution, infested pea seedlings on Parafilm, mortality 5 days after infestation
[2] = system: Diabrotica balteata (Corn root worm); test: Diabrotica balteata (Corn root worm) larval mortality, artificial diet in 24-well MTP; settings: 120 h, application rate 200 ppm (concentration in well 18 ppm), L2 larvae, larval mortality after 5 days
[3] = system: Thrips tabaci (Onion thrips); test: Thrips tabaci (Onion thrips) mortality, sprayed sunflower leaf discs; settings: foliar, 168 h, 200 ppm spray on sunflower leaf discs, mixed ages, mortality after 7 days
[4] = system: Myzus persicae (Green peach aphid); test: Myzus persicae (Green peach aphid) mortality, sprayed sunflower leaf discs; settings: foliar, 144 h, 200 ppm spray on sunflower leaf discs, mixed ages, mortality 6 DAT
[5] = system: Plutella xylostella (Diamond back moth); test: Plutella xylostella (Diamond back moth) larval mortality, artificial diet in 24-well MTP; settings: 144 h, application rate 200 ppm (concentration in well 18 ppm), L2 larvae, larval mortality after 6 days
[6] = system: Spodoptera littoralis (Egyptian cotton leafworm); test: Spodoptera littoralis (Egyptian cotton leafworm) mortality, sprayed cotton leaf discs; settings: foliar, 72 h, 200 ppm spray on cotton leaf discs, L1 larvae, mortality 3 DAT
[7] = system: Tetranychus urticae (Two-spotted spider mite); test: Tetranychus urticae (Two-spotted spider mite) mortality, sprayed bean leaf discs; settings: foliar, 192 h, 200 ppm spray on bean leaf discs, mixed ages, egg, larval and adult mortality after 8 days

O=C(Nc1cccc(C(=O)Nc2c(Br)cc(C(F)(C(F)(F)F)C(F)(F)F)cc2OC(F)F)c1F)c1ccc(F)c(C(F)(F)F)c1 [Compound 27]
≥ 80%: pest or weed control at 12.5 ppm [1] | pest or weed control at 200 ppm [2] | pest or weed control at 200 ppm [3] | pest or weed control at 200 ppm [4] | pest or weed control at 200 ppm [5] | pest or weed control at 200 ppm [6] | pest or weed control at 200 ppm [7]

O=C(Nc1cccc(C(=O)Nc2c(Br)cc(C(F)(C(F)(F)F)C(F)(F)F)cc2OC(F)F)c1F)c1ccc(C(F)(F)F)cc1 [Compound 28]
≥ 80%: pest or weed control at 12.5 ppm [1] | pest or weed control at 200 ppm [2] | pest or weed control at 200 ppm [3] | pest or weed control at 200 ppm [4] | pest or weed control at 200 ppm [5] | pest or weed control at 200 ppm [6] | pest or weed control at 200 ppm [7]

O=C(Nc1cccc(C(=O)Nc2c(Br)cc(C(F)(C(F)(F)F)C(F)(F)F)cc2OC(F)F)c1F)c1ccccc1 [Compound 31]
≥ 80%: pest or weed control at 12.5 ppm [1] | pest or weed control at 200 ppm [2] | pest or weed control at 200 ppm [3] | pest or weed control at 200 ppm [4] | pest or weed control at 200 ppm [5] | pest or weed control at 200 ppm [6] | pest or weed control at 200 ppm [7]

O=C(Nc1cccc(C(=O)Nc2c(Br)cc(C(F)(C(F)(F)F)C(F)(F)F)cc2OC(F)F)c1F)c1ccc(F)cc1 [Compound 32]
≥ 80%: pest or weed control at 12.5 ppm [1] | pest or weed control at 200 ppm [2] | pest or weed control at 200 ppm [3] | pest or weed control at 200 ppm [4] | pest or weed control at 200 ppm [5] | pest or weed control at 200 ppm [6] | pest or weed control at 200 ppm [7]

O=C(Nc1cccc(C(=O)Nc2c(Br)cc(C(F)(C(F)(F)F)C(F)(F)F)cc2OC(F)F)c1F)c1ccc(F)cc1Cl [Compound 36]
≥ 80%: pest or weed control at 12.5 ppm [1] | pest or weed control at 200 ppm [2] | pest or weed control at 200 ppm [3] | pest or weed control at 200 ppm [4] | pest or weed control at 200 ppm [5] | pest or weed control at 200 ppm [6] | pest or weed control at 200 ppm [7]

O=C(Nc1cccc(C(=O)Nc2c(Br)cc(C(F)(C(F)(F)F)C(F)(F)F)cc2OC(F)F)c1F)c1cccc(F)c1F [Compound 38]
≥ 80%: pest or weed control at 12.5 ppm [1] | pest or weed control at 200 ppm [2] | pest or weed control at 200 ppm [3] | pest or weed control at 200 ppm [4] | pest or weed control at 200 ppm [5] | pest or weed control at 200 ppm [6] | pest or weed control at 200 ppm [7]

COc1c(NC(=O)c2ccc([N+](=O)[O-])cc2)cccc1C(=O)Nc1c(Br)cc(C(F)(C(F)(F)F)C(F)(F)F)cc1OC(F)F [Compound 39]
≥ 80%: pest or weed control at 12.5 ppm [1] | pest or weed control at 200 ppm [2] | pest or weed control at 200 ppm [3] | pest or weed control at 200 ppm [4] | pest or weed control at 200 ppm [5] | pest or weed control at 200 ppm [6] | pest or weed control at 200 ppm [7]

O=C(Nc1cccc(C(=O)Nc2c(Br)cc(C(F)(C(F)(F)F)C(F)(F)F)cc2OC(F)F)c1F)c1ccc(F)cc1F [Compound 40]
≥ 80%: pest or weed control at 12.5 ppm [1] | pest or weed control at 200 ppm [2] | pest or weed control at 200 ppm [3] | pest or weed control at 200 ppm [4] | pest or weed control at 200 ppm [5] | pest or weed control at 200 ppm [6] | pest or weed control at 200 ppm [7]

COc1c(NC(=O)c2ccc([N+](=O)[O-])cc2Cl)cccc1C(=O)Nc1c(Br)cc(C(F)(C(F)(F)F)C(F)(F)F)cc1OC(F)F [Compound 47]
≥ 80%: pest or weed control at 12.5 ppm [1] | pest or weed control at 200 ppm [2] | pest or weed control at 200 ppm [3] | pest or weed control at 200 ppm [4] | pest or weed control at 200 ppm [5] | pest or weed control at 200 ppm [6] | pest or weed control at 200 ppm [7]

O=C(Nc1cccc(C(=O)Nc2c(Cl)cc(C(F)(C(F)(F)F)C(F)(F)F)cc2OC(F)F)c1F)c1ccc([N+](=O)[O-])cc1 [Compound 49]
≥ 80%: pest or weed control at 12.5 ppm [1] | pest or weed control at 200 ppm [2] | pest or weed control at 200 ppm [3] | pest or weed control at 200 ppm [4] | pest or weed control at 200 ppm [5] | pest or weed control at 200 ppm [6] | pest or weed control at 200 ppm [7]

COc1c(NC(=O)c2ccc(OC(F)(F)F)cc2)cccc1C(=O)Nc1c(Br)cc(C(F)(C(F)(F)F)C(F)(F)F)cc1OC(F)F [Compound 50]
≥ 80%: pest or weed control at 12.5 ppm [1] | pest or weed control at 200 ppm [2] | pest or weed control at 200 ppm [3] | pest or weed control at 200 ppm [4] | pest or weed control at 200 ppm [5] | pest or weed control at 200 ppm [6] | pest or weed control at 200 ppm [7]

Cc1ccc(C(=O)Nc2cccc(C(=O)Nc3c(Cl)cc(C(F)(C(F)(F)F)C(F)(F)F)cc3OC(F)F)c2F)cc1 [Compound 51]
≥ 80%: pest or weed control at 12.5 ppm [1] | pest or weed control at 200 ppm [2] | pest or weed control at 200 ppm [3] | pest or weed control at 200 ppm [4] | pest or weed control at 200 ppm [5] | pest or weed control at 200 ppm [6] | pest or weed control at 200 ppm [7]

Cc1cc(F)ccc1C(=O)Nc1cccc(C(=O)Nc2c(Cl)cc(C(F)(C(F)(F)F)C(F)(F)F)cc2OC(F)F)c1F [Compound 53]
≥ 80%: pest or weed control at 12.5 ppm [1] | pest or weed control at 200 ppm [2] | pest or weed control at 200 ppm [3] | pest or weed control at 200 ppm [4] | pest or weed control at 200 ppm [5] | pest or weed control at 200 ppm [6] | pest or weed control at 200 ppm [7]

COc1c(NC(=O)c2ccc(C(F)(F)F)cc2)cccc1C(=O)Nc1c(Br)cc(C(F)(C(F)(F)F)C(F)(F)F)cc1OC(F)F [Compound 54]
≥ 80%: pest or weed control at 12.5 ppm [1] | pest or weed control at 200 ppm [2] | pest or weed control at 200 ppm [3] | pest or weed control at 200 ppm [4] | pest or weed control at 200 ppm [5] | pest or weed control at 200 ppm [6] | pest or weed control at 200 ppm [7]

O=C(Nc1cccc(C(=O)Nc2c(Cl)cc(C(F)(C(F)(F)F)C(F)(F)F)cc2OC(F)F)c1F)c1ccc([N+](=O)[O-])cc1Cl [Compound 57]
≥ 80%: pest or weed control at 12.5 ppm [1] | pest or weed control at 200 ppm [2] | pest or weed control at 200 ppm [3] | pest or weed control at 200 ppm [4] | pest or weed control at 200 ppm [5] | pest or weed control at 200 ppm [6] | pest or weed control at 200 ppm [7]

O=C(Nc1cccc(C(=O)Nc2c(Cl)cc(C(F)(C(F)(F)F)C(F)(F)F)cc2OC(F)F)c1F)c1ccc(OC(F)(F)F)cc1 [Compound 60]
≥ 80%: pest or weed control at 12.5 ppm [1] | pest or weed control at 200 ppm [2] | pest or weed control at 200 ppm [3] | pest or weed control at 200 ppm [4] | pest or weed control at 200 ppm [5] | pest or weed control at 200 ppm [6] | pest or weed control at 200 ppm [7]

COc1c(NC(=O)c2ccc(F)cc2)cccc1C(=O)Nc1c(Br)cc(C(F)(C(F)(F)F)C(F)(F)F)cc1OC(F)F [Compound 61]
≥ 80%: pest or weed control at 12.5 ppm [1] | pest or weed control at 200 ppm [2] | pest or weed control at 200 ppm [3] | pest or weed control at 200 ppm [4] | pest or weed control at 200 ppm [5] | pest or weed control at 200 ppm [6] | pest or weed control at 200 ppm [7]

O=C(Nc1cccc(C(=O)Nc2c(Cl)cc(C(F)(C(F)(F)F)C(F)(F)F)cc2OC(F)F)c1F)c1ccc(C(F)(F)F)cc1 [Compound 64]
≥ 80%: pest or weed control at 12.5 ppm [1] | pest or weed control at 200 ppm [2] | pest or weed control at 200 ppm [3] | pest or weed control at 200 ppm [4] | pest or weed control at 200 ppm [5] | pest or weed control at 200 ppm [6] | pest or weed control at 200 ppm [7]

COc1c(NC(=O)c2ccc(F)cc2Cl)cccc1C(=O)Nc1c(Br)cc(C(F)(C(F)(F)F)C(F)(F)F)cc1OC(F)F [Compound 66]
≥ 80%: pest or weed control at 12.5 ppm [1] | pest or weed control at 200 ppm [2] | pest or weed control at 200 ppm [3] | pest or weed control at 200 ppm [4] | pest or weed control at 200 ppm [5] | pest or weed control at 200 ppm [6] | pest or weed control at 200 ppm [7]

O=C(Nc1cccc(C(=O)Nc2c(Cl)cc(C(F)(C(F)(F)F)C(F)(F)F)cc2OC(F)F)c1F)c1ccccc1 [Compound 68]
≥ 80%: pest or weed control at 12.5 ppm [1] | pest or weed control at 200 ppm [2] | pest or weed control at 200 ppm [3] | pest or weed control at 200 ppm [4] | pest or weed control at 200 ppm [5] | pest or weed control at 200 ppm [6] | pest or weed control at 200 ppm [7]

O=C(Nc1cccc(C(=O)Nc2c(Cl)cc(C(F)(C(F)(F)F)C(F)(F)F)cc2OC(F)F)c1F)c1ccc(F)cc1 [Compound 70]
≥ 80%: pest or weed control at 12.5 ppm [1] | pest or weed control at 200 ppm [2] | pest or weed control at 200 ppm [3] | pest or weed control at 200 ppm [4] | pest or weed control at 200 ppm [5] | pest or weed control at 200 ppm [6] | pest or weed control at 200 ppm [7]

O=C(Nc1cccc(C(=O)Nc2c(Cl)cc(C(F)(C(F)(F)F)C(F)(F)F)cc2OC(F)F)c1F)c1cccc(F)c1F [Compound 76]
≥ 80%: pest or weed control at 12.5 ppm [1] | pest or weed control at 200 ppm [2] | pest or weed control at 200 ppm [3] | pest or weed control at 200 ppm [4] | pest or weed control at 200 ppm [5] | pest or weed control at 200 ppm [6] | pest or weed control at 200 ppm [7]

O=C(Nc1cccc(C(=O)Nc2c(Cl)cc(C(F)(C(F)(F)F)C(F)(F)F)cc2OC(F)F)c1F)c1ccc(F)cc1F [Compound 78]
≥ 80%: pest or weed control at 12.5 ppm [1] | pest or weed control at 200 ppm [2] | pest or weed control at 200 ppm [3] | pest or weed control at 200 ppm [4] | pest or weed control at 200 ppm [5] | pest or weed control at 200 ppm [6] | pest or weed control at 200 ppm [7]
